Source: ChEMBL document CHEMBL5512659, “Structure optimizing of flavonoids against both MRSA and VRE” (Eur J Med Chem, 2024)
Converted amounts (≈) assume the structure as drawn. The source made the active and inactive calls. No cut-off for these calls is given here.

Assays:
[1] = tested on: Staphylococcus aureus; assay: Antibacterial activity against methicillin resistant Staphylococcus aureus clinical isolate 003 in presence of phosphatidylethanolamine; format: functional, organism-based
[2] = tested on: Staphylococcus aureus; assay: Antibiofilm activity in methicillin resistant Staphylococcus aureus clinical isolate 003 assessed as destruction of biofilm integrity at 0.5 to 4 times MIC measured after 24 hrs by inverted fluorescence microscopic analysis; format: functional, organism-based
[3] = tested on: Cell membrane; assay: Induction of membrane damage in multidrug resistant Enterococcus faecalis ATCC 51299 assessed as deformation of bacterial surface at 2 to 4 times MIC by SEM analysis; format: cell membranes
[4] = tested on: Enterococcus faecalis; assay: Antibacterial activity in multidrug resistant Enterococcus faecalis ATCC 51299 at sub-MIC measured after 20 passages; format: functional, organism-based
[5] = tested on: Enterococcus faecalis; assay: Antibiofilm activity in multidrug resistant Enterococcus faecalis ATCC 51299 assessed as inhibition of biofilm formation at 4 times MIC by crystal violet staining based analysis relative to control; format: functional
[6] = tested on: Staphylococcus aureus; assay: Antibiofilm activity in methicillin resistant Staphylococcus aureus clinical isolate 003 assessed as inhibition of biofilm formation at 4 times MIC by crystal violet staining based analysis relative to control; format: functional
[7] = tested on: Cell membrane; assay: Disruption of membrane permeability in methicillin resistant Staphylococcus aureus clinical isolate 003 assessed as increase in ROS accumulation at 2 to 4 times MIC measured after 1 hr
[8] = tested on: Staphylococcus aureus; assay: Antibacterial activity against methicillin resistant Staphylococcus aureus clinical isolate 003 in presence of peptidoglycan; format: functional, organism-based
[9] = tested on: Cell membrane; assay: Induction of cell membrane damage in multidrug resistant Enterococcus faecalis ATCC 51299 assessed as increase in red fluorescence at 2 to 4 times MIC by PI staining based analysis; format: cell membranes
[10] = tested on: Cell membrane; assay: Disruption of membrane permeability in multidrug resistant Enterococcus faecalis ATCC 51299 assessed as increase in ROS accumulation at 2 to 4 times MIC measured after 1 hr
[11] = tested on: Staphylococcus aureus; assay: Antibacterial activity against Staphylococcus aureus clinical isolate 31; format: functional
[12] = tested on: Cell membrane; assay: Induction of membrane depolarization in multidrug resistant Enterococcus faecalis ATCC 51299 assessed as increase in fluorescence intensity at 2 to 4 times MIC by DiSC3(5) dye based analysis
[13] = tested on: Staphylococcus aureus; assay: Antibacterial activity against methicillin resistant Staphylococcus aureus clinical isolate 003; format: functional
[14] = tested on: Cell membrane; assay: Induction of cell membrane damage in methicillin resistant Staphylococcus aureus clinical isolate 003 assessed as increase in green fluorescence at 2 to 4 times MIC by SYTOX Green dye based analysis; format: cell membranes
[15] = tested on: Staphylococcus aureus; assay: Antibacterial activity against methicillin resistant Staphylococcus aureus clinical isolate 003 in presence of phosphatidylglycerol; format: functional, organism-based
[16] = tested on: Enterococcus faecalis; assay: Antibacterial activity against multidrug resistant Enterococcus faecalis ATCC 51299 in presence of cardiolipin; format: functional, organism-based
[17] = tested on: Enterococcus faecalis; assay: Antibacterial activity against Enterococcus faecalis clinical isolate 7; format: functional
[18] = tested on: Enterococcus faecalis; assay: Bactericidal activity against multidrug resistant Enterococcus faecalis ATCC 51299 assessed as inhibition of bacterial growth by measuring ratio of MBC to MIC; format: functional
[19] = tested on: Enterococcus faecalis; assay: Antibacterial activity against multidrug resistant Enterococcus faecalis ATCC 51299; format: functional
[20] = tested on: Cell membrane; assay: Disruption of membrane permeability in methicillin resistant Staphylococcus aureus clinical isolate 003 assessed as protein leakage at 2 to 4 times MIC
[21] = tested on: Staphylococcus aureus; assay: Antibacterial activity against methicillin resistant Staphylococcus aureus clinical isolate 031; format: functional
[22] = tested on: Staphylococcus aureus; assay: Bactericidal activity against methicillin-resistant Staphylococcus aureus clinical isolate 003 assessed as inhibition of bacterial growth by measuring ratio of MBC to MIC; format: functional
[23] = tested on: Staphylococcus aureus; assay: Antibacterial activity against Staphylococcus aureus clinical isolate 29; format: functional
[24] = tested on: Staphylococcus aureus; assay: Antibiofilm activity in methicillin resistant Staphylococcus aureus clinical isolate 003 assessed as biofilm clearance at 0.5 to 4 times MIC by crystal violet staining based analysis; format: functional, organism-based
[25] = tested on: Cell membrane; assay: Disruption of membrane permeability in multidrug resistant Enterococcus faecalis ATCC 51299 assessed as increase in fluorescence intensity at 4 to 8 times MIC by PI staining based analysis
[26] = tested on: Cell membrane; assay: Induction of membrane depolarization in methicillin resistant Staphylococcus aureus clinical isolate 003 assessed as increase in fluorescence intensity at 2 to 4 times MIC by DiSC3(5) dye based analysis
[27] = tested on: Cell membrane; assay: Disruption of membrane permeability in multidrug resistant Enterococcus faecalis ATCC 51299 assessed as nucleic acid leakage at 2 to 4 times MIC
[28] = tested on: Enterococcus faecalis; assay: Antibacterial activity against multidrug resistant Enterococcus faecalis ATCC 51299 in presence of phosphatidylethanolamine; format: functional, organism-based
[29] = tested on: Cell membrane; assay: Disruption of membrane permeability in methicillin resistant Staphylococcus aureus clinical isolate 003 assessed as increase in malondialdehyde level
[30] = tested on: Enterococcus faecalis; assay: Antibiofilm activity in multidrug resistant Enterococcus faecalis ATCC 51299 assessed as reduction in biofilm density at 0.5 to 4 times MIC measured after 24 hrs by inverted fluorescence microscopic analysis; format: functional, organism-based
[31] = tested on: Enterococcus faecalis; assay: Antibiofilm activity in multidrug resistant Enterococcus faecalis ATCC 51299 assessed as biofilm clearance rate at 4 times MIC by crystal violet staining based analysis relative to control; format: functional
[32] = tested on: Cell membrane; assay: Disruption of membrane permeability in methicillin resistant Staphylococcus aureus clinical isolate 003 assessed as increase in fluorescence intensity at 4 to 8 times MIC by PI staining based analysis
[33] = tested on: Cell membrane; assay: Disruption of membrane permeability in methicillin resistant Staphylococcus aureus clinical isolate 003 assessed as nucleic acid leakage at 2 to 4 times MIC
[34] = tested on: Cell membrane; assay: Induction of cell membrane damage in methicillin resistant Staphylococcus aureus clinical isolate 003 assessed as increase in red fluorescence at 2 to 4 times MIC by PI staining based analysis; format: cell membranes
[35] = tested on: Enterococcus faecalis; assay: Antibiofilm activity in multidrug resistant Enterococcus faecalis ATCC 51299 assessed as biofilm clearance at 0.5 to 4 times MIC by crystal violet staining based analysis; format: functional, organism-based
[36] = tested on: Enterococcus faecalis; assay: Antibacterial activity against multidrug resistant Enterococcus faecalis ATCC 51299 at 2 to 4 times MIC measured after 8 to 12 hrs by time-kill assay; format: functional, organism-based; settings: time 8-12 hrs
[37] = tested on: Staphylococcus aureus; assay: Antibacterial activity in methicillin resistant Staphylococcus aureus clinical isolate 003 at sub-MIC measured after 20 passages; format: functional, organism-based
[38] = tested on: Staphylococcus aureus; assay: Antibacterial activity against methicillin-resistant Staphylococcus aureus clinical isolate 003 at 2 to 4 times MIC measured after 8 to 12 hrs by time-kill assay; format: functional, organism-based; settings: time 8-12 hrs
[39] = tested on: Enterococcus faecalis; assay: Antibacterial activity against multidrug resistant Enterococcus faecalis ATCC 51299 in presence of peptidoglycan; format: functional, organism-based
[40] = tested on: Cell membrane; assay: Induction of cell membrane damage in multidrug resistant Enterococcus faecalis ATCC 51299 assessed as bacterial death at 2 to 4 times MIC by confocal laser scanning microscopy; format: cell membranes
[41] = tested on: Staphylococcus aureus; assay: Antibiofilm activity in methicillin resistant Staphylococcus aureus clinical isolate 003 assessed as reduction in biofilm density at 0.5 to 4 times MIC measured after 24 hrs by inverted fluorescence microscopic analysis; format: functional, organism-based
[42] = tested on: Cell membrane; assay: Induction of cell membrane damage in multidrug resistant Enterococcus faecalis ATCC 51299 assessed as increase in green fluorescence at 2 to 4 times MIC by SYTOX Green dye based analysis; format: cell membranes
[43] = tested on: Enterococcus faecalis; assay: Antibiofilm activity in multidrug resistant Enterococcus faecalis ATCC 51299 assessed as destruction of biofilm integrity at 0.5 to 4 times MIC measured after 24 hrs by inverted fluorescence microscopic analysis; format: functional, organism-based

CCCCCCc1c(-c2ccc(OCCCCNCCCN)cc2OCCCCNCCCN)oc2cc(OC)cc(O)c2c1=O
Activity [1]: inactive | Activity [2]: Dose-Dependent Effect | Activity [3]: Active | Activity [4]: Active | inhibition (INH) [5]: >90% | inhibition (INH) [6]: >90% | Activity [7]: Active | Activity [8]: Active | Activity [9]: Active | Activity [10]: Active | MIC [11]: 0.25 µg/mL (≈ 0.39 µM) | Activity [12]: Dose-Dependent Effect | MIC [13]: 0.25 µg/mL (≈ 0.39 µM) | Activity [14]: Active | Activity [15]: inactive | Activity [16]: inactive | MIC [17]: 1 µg/mL (≈ 1.56 µM) | Ratio [18]: <4 | MIC [19]: 1 µg/mL (≈ 1.56 µM) | Activity [20]: Active | MIC [21]: 0.25 µg/mL (≈ 0.39 µM) | Ratio [22]: <4 | MIC [23]: 0.5 µg/mL (≈ 0.78 µM) | Activity [24]: Dose-Dependent Effect | Activity [25]: Active | Activity [26]: Dose-Dependent Effect | Activity [27]: Active | Activity [28]: inactive | Activity [29]: Active | Activity [30]: Dose-Dependent Effect | Activity [31]: ~80% | Activity [32]: Active | Activity [33]: Active | Activity [34]: Active | Activity [35]: Dose-Dependent Effect | Activity [36]: Active | Activity [37]: Active | Activity [38]: Active | Activity [39]: Active | Activity [40]: Active | Activity [41]: Dose-Dependent Effect | Activity [42]: Active | Activity [43]: Dose-Dependent Effect

CCCCCCc1c(-c2ccc(OCCCCN(C)C)cc2OCCCCN(C)C)oc2cc(OC)cc(O)c2c1=O
Activity [1]: inactive | Activity [2]: Dose-Dependent Effect | Activity [3]: Active | Activity [4]: Active | inhibition (INH) [5]: >90% | inhibition (INH) [6]: >90% | Activity [7]: Active | Activity [8]: Active | Activity [9]: Active | Activity [10]: Active | MIC [11]: 1 µg/mL (≈ 1.72 µM) | Activity [12]: Dose-Dependent Effect | MIC [13]: 0.5 µg/mL (≈ 0.858 µM) | Activity [14]: Active | Activity [15]: inactive | Activity [16]: inactive | MIC [17]: 1 µg/mL (≈ 1.72 µM) | Ratio [18]: <4 | MIC [19]: 1 µg/mL (≈ 1.72 µM) | Activity [20]: Active | MIC [21]: 1 µg/mL (≈ 1.72 µM) | Ratio [22]: <4 | MIC [23]: 0.5 µg/mL (≈ 0.858 µM) | Activity [24]: Dose-Dependent Effect | Activity [25]: Active | Activity [26]: Dose-Dependent Effect | Activity [27]: Active | Activity [28]: inactive | Activity [29]: Active | Activity [30]: Dose-Dependent Effect | Activity [31]: ~80% | Activity [32]: Active | Activity [33]: Active | Activity [34]: Active | Activity [35]: Dose-Dependent Effect | Activity [36]: Active | Activity [37]: Active | Activity [38]: Active | Activity [39]: Active | Activity [40]: Active | Activity [41]: Dose-Dependent Effect | Activity [42]: Active | Activity [43]: Dose-Dependent Effect

CCCCCCc1c(-c2ccc(OCC(=O)CN[C@H](CCCNC(=N)N)C(=O)OC)cc2OCC(=O)CN[C@H](CCCNC(=N)N)C(=O)OC)oc2cc(OC)cc(O)c2c1=O
Activity [1]: inactive | Activity [2]: Dose-Dependent Effect | Activity [3]: Active | Activity [4]: Active | inhibition (INH) [5]: >90% | inhibition (INH) [6]: >90% | Activity [7]: Active | Activity [8]: Active | Activity [9]: Active | Activity [10]: Active | MIC [11]: 1 µg/mL (≈ 1.15 µM) | Activity [12]: Dose-Dependent Effect | MIC [13]: 1 µg/mL (≈ 1.15 µM) | Activity [14]: Active | Activity [15]: inactive | Activity [16]: inactive | MIC [17]: 64 µg/mL (≈ 73.6 µM) | Ratio [18]: <4 | MIC [19]: 32 µg/mL (≈ 36.8 µM) | Activity [20]: Active | MIC [21]: 2 µg/mL (≈ 2.3 µM) | Ratio [22]: <4 | MIC [23]: 2 µg/mL (≈ 2.3 µM) | Activity [24]: Dose-Dependent Effect | Activity [25]: Active | Activity [26]: Dose-Dependent Effect | Activity [27]: Active | Activity [28]: inactive | Activity [29]: Active | Activity [30]: Dose-Dependent Effect | Activity [31]: ~80% | Activity [32]: Active | Activity [33]: Active | Activity [34]: Active | Activity [35]: Dose-Dependent Effect | Activity [36]: Active | Activity [37]: Active | Activity [38]: Active | Activity [39]: Active | Activity [40]: Active | Activity [41]: Dose-Dependent Effect | Activity [42]: Active | Activity [43]: Dose-Dependent Effect
